From patent US20260130928A1, “COMBINATION OF AKR1C3 ACTIVATED ANTICANCER PRODRUG COMPOUND AND ANALGESIC DRUG FOR TREATING CANCER PATIENTS ACCOMPANIED BY PAIN” (ASCENTAWITS PHARMACEUTICALS, LTD., priority 2022, published 2026)

Test system: human lung cancer NCI-H460
Assay: Pharmacodynamics in subcutaneous xenograft model of human lung cancer NCI-H460 (tumor volume, TGI)
Assay type: in vivo, BALB/c nude mice
Settings: Group 7: AST-3424 2.5 mg/kg QW×3 i.v.
Procedure: Measures of pharmacodynamics of AST-3424 monotherapy and combination therapy with Celecoxib were performed in a subcutaneous xenograft model of human lung cancer NCI-H460 established by using female BALB/c nude mice.
After the inoculation of tumor cell, tumor growth was routinely monitored, and tumor volume and mouse weight were measured. Evaluation of therapeutic efficiency was based on the relative tumor growth inhibition TGI (%). The specific results are shown in Table 3 and FIG. 3, and the Pharmacodynamics analysis data on Day 30 after inoculation (at the end of drug administration) are particularly given in Table 4.

C[C@H](OP(=O)(N1CC1)N1CC1)c1ccc([N+](=O)[O-])c(Oc2cccc(C(=O)N(C)C)c2)c1 [AST-3424]
Tumor volume (x ± S) (Day 9 after cell inoculation): 144.01 ± 11.36 mm^3 | Tumor volume (x ± S) (Day 12 after cell inoculation): 164.28 ± 17.97 mm^3 | Tumor volume (x ± S) (Day 16 after cell inoculation): 166.22 ± 18.81 mm^3 | Tumor volume (x ± S) (Day 19 after cell inoculation): 209.80 ± 41.43 mm^3 | Tumor volume (x ± S) (Day 23 after cell inoculation): 208.60 ± 43.27 mm^3 | Tumor volume (x ± S) (Day 26 after cell inoculation): 291.82 ± 67.06 mm^3 | Tumor volume (x ± S) (Day 30 after cell inoculation): 327.47 ± 85.10 mm^3 | Relative tumor volume (x ± S) (Day 30 after inoculation): 2.19 ± 0.41 | T/C (%) (Day 30 after inoculation): 39.25% | TGI (%) (Day 30 after inoculation, 2.5 mg/kg): 60.75% | Tumor volume (x ± S) (Day 30 after inoculation, in mm³): 327.47 ± 85.10 | Tumor volume (x ± S) (Day 33 after cell inoculation): 348.83 ± 90.34 mm^3 | Tumor volume (x ± S) (Day 37 after cell inoculation): 439.52 ± 142.78 mm^3
